The subject of assay [1] is H1975 human non-small cell lung cancer cells. In words: MTT cell activity assay, H1975 cells. Conditions: NCI-H1975, 72 hrs with compound, absorption at 570 nm or 490 nm. Type of assay: cell-based. The method, then:
(§1) H1975/HCC827: human non-small cell lung cancer cells, PBS, MTT, DMEM culture medium, pancreatin, a multichannel pipette, a vortex mixer, a microplate reader, a biosafety cabinet, a 5% CO2 cell culture incubator, a cell counter, a microscope, a thermostatic water bath, and a 96-pore plate.
(§2) 1. H1975/HCC827 cells was cleaned with PBS, digested with pancreatin, centrifuged at room temperature for 5 min at 1000 rpm, re-suspended with an appropriate amount of culture medium, and counted by a cell counting plate. The cells were inoculated to the 96-pore plate by the multichannel pipette at 1000-2000 cells/pore/100 μl, with 6 complex pores for each concentration and totally 6 concentration gradients. The basis of the number of cells: upon final test, OD570 was between 0.2-0.8 (Lambert-Beer's Law).
(§3) 2. The compounds were prepared into […] of mother liquor by using DMSO. 10 μl of mother liquor was added into 90 μl of DMSO, and the mixture was uniformly mixed by the vortex mixer and diluted in turn for 5 times to obtain DMSO stock solution. The stock solution was stored at 4° C. for standby. The stock solution was uniformly mixed again before use and then added into a complete culture medium in 1:500 to serve as working solution, and then the mixture was mixed uniformly by the vortex mixer. The working solution needs to be immediately used after prepared well to avoid precipitation after long-term storage.
(§4) 3. The 96-pore plate was cultured in the cell incubator for 24 hrs, then added with 100 μl of the working solution prepared from the compounds, and continued to be cultured together for 72 hrs.
(§5) 4. The upper-layer culture medium was removed carefully, then 100 μl of culture medium containing MTT (0.5 mg/ml) was added again, and the culture medium was placed in the incubator for 4 hrs. The culture medium was removed completely, then 100 μl of DMSO was added, and the mixture was shocked uniformly. Preparation of MTT: 1.25 g of MTT was added into 250 ml of PBS, and then the mixture was mixed uniformly and stored away from light at 4° C.
(§6) 5. The light absorption value at 570 nm or 490 nm was detected by the microplate reader. EC50 was calculated and an added value curve was drawn by Graphpad.
Background: Formazan colour is commonly taken as a measure of viable cells.

Assay [2] relates to HCC827 human non-small cell lung cancer cells. In words: MTT cell activity assay, HCC827 cells. The format is cell-based. Conditions: 72 hrs with compound, absorption at 570 nm or 490 nm. As to the method:
as §1, §2, §3, §4, §5, §6

The structures appear in SMILES notation.

With `C#Cc1cccc(Nc2ncnc3cc(OCCOC)c(OCCOC(=O)c4ccccc4OC(C)=O)cc23)c1` [Embodiment 3, 2-(4-(3-ethynylaniline)-7-(2-methoxyethoxy)quinazoline-6-oxy)ethyl-2-acetoxybenzoic acid], the EC50 in assay [1] is 12.2 µM; in assay [2] it was 0.16 µM.

Regarding `C#Cc1cccc(Nc2ncnc3cc(OCCOC)c(OCCOC(=O)C4=Cc5cc(Cl)c(C(C)(C)C)cc5OC4C(F)(F)F)cc23)c1` (stereo not shown) [Embodiment 4], the concentration for a half-maximal effect (EC50) in assay [1] turned out to be 32.9 µM; in assay [2], 0.61 µM.

For the compound `C#Cc1cccc(Nc2ncnc3cc(OCCOC(=O)C(C)c4ccc(CC(C)C)cc4)c(OCCOC)cc23)c1` (stereo not shown) [Embodiment 10, 2-(4-(3-ethynylaniline)-6-(2-methoxyethoxy)quinazoline-7-oxy)ethyl-2-(4-isobutylphenyl)propanoic acid], the EC50 in assay [1] stood at 8.65 µM; in assay [2], 0.28 µM.

For `C#Cc1cccc(Nc2ncnc3cc(OCCOC(=O)c4ccccc4OC(C)=O)c(OCCOC)cc23)c1` [Embodiment 11, 2-(4-(3-ethynylaniline)-6-(2-methoxyethoxy)quinazoline-7-oxy)ethyl-2-acetoxyl benzoic acid], the EC50 in assay [1] is 13.8 µM; in assay [2] it was 0.13 µM.

For the compound `C#Cc1cccc(Nc2ncnc3cc(OCCOC(=O)C(C)c4ccc5cc(OC)ccc5c4)c(OCCOC)cc23)c1` (stereo not shown) [Embodiment 13, 2-(4-(3-ethynylaniline)-6-(2-methoxyethoxy)quinazoline-7-oxy)ethyl-2-(6-methoxylnaphthyl-2-ene)propanoic acid], the EC50 in assay [1] came out at 27.2 µM; in assay [2], 0.09 µM.

As for `C#Cc1cccc(Nc2ncnc3cc(OCCOC(=O)Cc4c(C)n(C(=O)c5ccc(Cl)cc5)c5ccc(OC)cc45)c(OCCOC)cc23)c1` [Embodiment 14, 3-(4-(3-ethynylaniline)-6-(2-methoxyethoxy)quinazoline-7-oxy)ethyl-2-(1-(4-chlorobenzoyl)-5-methoxy-2-methyl-1H-indol-3-ene)acetic acid], the half-maximal effective concentration (EC50) in assay [1] is 95.8 µM; in assay [2], 0.63 µM.

Turning to `C#Cc1cccc(Nc2ncnc3cc(OCCOC(=O)C(C)c4ccc(C(=O)c5ccccc5)cc4)c(OCCOC(=O)C(C)c4ccc(C(=O)c5ccccc5)cc4)cc23)c1` (stereo not shown) [Embodiment 17, 2,2′-(4-(3-ethynylaniline)quinazoline-6,7-diene)di(oxy)bis(ethyl-2,1-diene)-bis(2-(4-benzoylphenyl)propanoic acid)], the EC50 in assay [2] turned out to be 1.5 µM.

For the compound `C#Cc1cccc(Nc2ncnc3cc(OCCOC(=O)C(C)c4ccc(CC(C)C)cc4)c(OCCOC(=O)C(C)c4ccc(CC(C)C)cc4)cc23)c1` (stereo not shown) [Embodiment 18, 2,2′-(4-(3-ethynylaniline)quinazoline-6,7-diene)di(oxy)bis(ethyl-2,1-diene)-bis(2-(4-isobutylphenyl)propanoic acid)], the EC50 in assay [1] was 805 µM.

Turning to `C#Cc1cccc(Nc2ncnc3cc(OCCOC(=O)c4ccccc4OC(C)=O)c(OCCOC(=O)c4ccccc4OC(C)=O)cc23)c1` [Embodiment 19, 2,2′-(4-(3-ethynylaniline)quinazoline-6,7-diene)di(oxy)bis(ethyl-2,1-diene)-bis(2-acetoxylbenzoic acid)], the EC50 in assay [1] turned out to be 41.7 µM; in assay [2], 0.2 µM.

As for `C#Cc1cccc(Nc2ncnc3cc(OCCOC(=O)C4=Cc5cc(Cl)c(C(C)(C)C)cc5OC4C(F)(F)F)c(OCCOC(=O)C4=Cc5cc(Cl)c(C(C)(C)C)cc5OC4C(F)(F)F)cc23)c1` (stereo not shown) [Embodiment 21, 2,2′-(4-(3-ethynylaniline)quinazoline-6,7-diene)di(oxy)bis(ethyl-2,1-diene)-bis(7-7-tert-butyl-6-chloro-2-(trifluoromethyl)-2H-pyran-3-carboxylic acid)], the EC50 in assay [1] stood at 75.6 µM; in assay [2], 1.05 µM.

For `C#Cc1cccc(Nc2ncnc3cc(OCCOC(=O)Cc4c(C)n(C(=O)c5ccc(Cl)cc5)c5ccc(OC)cc45)c(OCCOC(=O)Cc4c(C)n(C(=O)c5ccc(Cl)cc5)c5ccc(OC)cc45)cc23)c1` [Embodiment 22, 2,2′-(4-(3-ethynylaniline)quinazoline-6,7-diene)di(oxy)bis(ethyl-2,1-diene)-bis(2-(1-(4-chlorobenzoyl)-5-methoxy-2-methyl-1H-indol-3-ene)acetic acid)], the 50% effective concentration (EC50) in assay [1] came to 55.3 µM; in assay [2], 3.62 µM.

In the case of `C#Cc1cccc(Nc2ncnc3cc(OCCOC(=O)c4ccc(C(=O)Nc5ccc6c(c5)C(C)(C)CCC6(C)C)cc4)c(OCCOC(=O)c4ccc(C(=O)Nc5ccc6c(c5)C(C)(C)CCC6(C)C)cc4)cc23)c1` [Embodiment 24, 2,2′-(4-(3-ethynylaniline)quinazoline-6,7-diene)di(oxy)bis(ethyl-2,1-diene)-bis(4-(5,5,8,8-tetramethyl-5,6,7,8-tetralin-2-alkenylcarbamyl)benzoic acid)], the values for the EC50 in assay [1] and in assay [2] were 52.9 µM and 1.14 µM, respectively.

The EC50 is the concentration that produces a half-maximal response.

The values above are taken from US9452220B2, “Coupling compounds of NSAID anti-inflammatory and analgesic drugs and EGFR kinase inhibitors, synthesis methods and applications thereof” (Guangzhou Institutes of Biomedicine and Health, Chinese …, priority 2014, dated 2016).
